Test: Liquid crystal dispersion system formation with changed component (i)
Format: physicochemical
Conditions: component (i): phytosterol 2, cetanol 5, Table 6 component 3, δ-tocopherol 0.1 parts by weight
From the text: The racemic ceramide was obtained by converting a racemic sphinganine obtained by the method by D. Shapiro., et al., (J. Am. Chem. Soc., 80, 2170(1958)) into its stearoyl form.

CCCCCCCCCCCCCCCCCC(=O)NC(CO)C(O)CCCCCCCCCCCCCCC (racemic) [racemic ceramide]
System morphology: difficult to form a stable liquid crystal dispersion system

Source: patent US8865191B2, “Lipid composition and skin care formulation containing the same” (Takasago International Corporation, priority 2003, dated 2014)
